# In patent US8952024B2, “Herbicidal pyrimidone derivatives” (E I du Pont de Nemours and Company, priority 2009, dated 2015):
# Tests used:
# Assay in all cases: Test B pre-/postemergence plant response
# Type in all cases: in vivo
# [1] = system: Italian ryegrass (Lolium multiflorum)
# Procedure, shortened: (§1)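 Response scores were assigned visually after 13 to 15 days in a greenhouse, comparing treated pots with controls on a 0–100 scale where 100 denotes complete control. Preemergence treatments went onto freshly seeded loam/sand soil; postemergence treatments onto plants 2 to 18 cm tall.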
# [2] = system: Surinam grass (Brachiaria decumbens)
# Procedure, shortened: as §1
# corn (Zea mays) = system: corn (Zea mays)
# Procedure, shortened: as §1
# [3] = system: galium (catchweed bedstraw, Galium aparine); conditions: Preemergence
# Procedure, shortened: as §1
# [4] = system: goosegrass (Eleusine indica)
# Procedure, shortened: as §1
# [5] = system: lambsquarters (Chenopodium album)
# Procedure, shortened: as §1
# [6] = system: large crabgrass (Digitaria sanguinalis)
# Procedure, shortened: as §1
# [7] = system: nightshade (eastern black nightshade, Solanum ptycanthum); conditions: Preemergence
# Procedure, shortened: as §1
# [8] = system: pigweed (Amaranthus retroflexus)
# Procedure, shortened: as §1
# [9] = system: sunflower (common oilseed sunflower, Helianthus annuus); conditions: Preemergence
# Procedure, shortened: as §1
# [10] = system: woolly cupgrass (Eriochloa villosa)
# Procedure, shortened: as §1
# [11] = 31 g ai/ha, postemergence, scale 0 to 100, 0 is no effect, 100 is complete control
# [12] = 62 g ai/ha, postemergence, 0 is no effect, 100 is complete control, 13 to 15 days
# [13] = Postemergence, 125 g ai/ha, visual rating after 13 to 15 days, scale 0 (no effect) to 100 (complete control)
# [14] = Postemergence, 250 g ai/ha, scale 0 to 100 (0 no effect, 100 complete control)
# [15] = Preemergence, 31 g ai/ha, scale 0 to 100 (0 no effect, 100 complete control)
# [16] = Preemergence, 62 g ai/ha, scale 0 to 100, 0 no effect, 100 complete control
# [17] = Preemergence, 125 g ai/ha, scale 0 to 100, 0 no effect, 100 complete control
# [18] = Preemergence, 250 g ai/ha, 0 to 100 scale
# [19] = 31 g ai/ha, scale 0 to 100 (0 no effect, 100 complete control)
# [20] = 62 g ai/ha, scale 0 to 100, 0 no effect, 100 complete control
# [21] = 125 g ai/ha, scale 0 to 100, 0 no effect, 100 complete control
smiles,measurement,setting,value
CCCCn1c(CCC)ncc(C(=O)C2=C(O)CCCC2=O)c1=O [Compound 75],"Plant response rating, Ryegrass, Italian",[1]; [11],0
same,"Ryegrass, Italian plant response rating (0 to 100 scale)",[1]; [12],15
same,"Plant response rating, Ryegrass, Italian",[1]; [13],40
same,"Plant response rating, Ryegrass, Italian",[1]; [14],60
same,"Plant response rating, Ryegrass, Italian",[1]; [15],0
same,"Plant response rating, Ryegrass, Italian",[1]; [16],0
same,"Plant response rating, Ryegrass, Italian",[1]; [17],0
same,"Ryegrass, Italian plant response rating",[1]; [18],0
same,"Plant response rating, Surinam Grass",[2]; [11],50
same,Surinam Grass plant response rating (0 to 100 scale),[2]; [12],50
same,"Plant response rating, Surinam Grass",[2]; [13],70
same,"Plant response rating, Surinam Grass",[2]; [14],85
same,"Plant response rating, Surinam Grass",[2]; [15],40
same,"Plant response rating, Surinam Grass",[2]; [16],60
same,"Plant response rating, Surinam Grass",[2]; [17],60
same,Surinam Grass plant response rating,[2]; [18],75
same,"Plant response rating, Corn",corn (Zea mays); [11],0
same,Corn plant response rating (0 to 100 scale),corn (Zea mays); [12],0
same,"Plant response rating, Corn",corn (Zea mays); [13],20
same,"Plant response rating, Corn",corn (Zea mays); [14],55
same,"Plant response rating, Corn",corn (Zea mays); [15],0
same,"Plant response rating, Corn",corn (Zea mays); [16],0
same,"Plant response rating, Corn",corn (Zea mays); [17],0
same,Corn plant response rating,corn (Zea mays); [18],0
same,"Plant response rating, Galium",[3]; [19],60
same,"Plant response rating, Galium",[3]; [20],85
same,"Plant response rating, Galium",[3]; [21],95
same,Galium plant response rating,"[3]; 250 g ai/ha, 0 to 100 scale",98
same,"Plant response rating, Goosegrass",[4]; [11],75
same,Goosegrass plant response rating (0 to 100 scale),[4]; [12],80
same,"Plant response rating, Goosegrass",[4]; [13],95
same,"Plant response rating, Goosegrass",[4]; [14],98
same,"Plant response rating, Goosegrass",[4]; [15],95
same,"Plant response rating, Goosegrass",[4]; [16],100
same,"Plant response rating, Goosegrass",[4]; [17],100
same,Goosegrass plant response rating,[4]; [18],100
same,"Plant response rating, Lambsquarters",[5]; [11],98
same,Lambsquarters plant response rating (0 to 100 scale),[5]; [12],100
same,"Plant response rating, Lambsquarters",[5]; [13],100
same,"Plant response rating, Lambsquarters",[5]; [14],100
same,"Plant response rating, Lambsquarters",[5]; [15],98
same,"Plant response rating, Lambsquarters",[5]; [16],100
same,"Plant response rating, Lambsquarters",[5]; [17],100
same,Lambsquarters plant response rating,[5]; [18],100
same,"Plant response rating, Crabgrass, Large",[6]; [11],95
same,"Crabgrass, Large plant response rating (0 to 100 scale)",[6]; [12],98
same,"Plant response rating, Crabgrass, Large",[6]; [13],100
same,"Plant response rating, Crabgrass, Large",[6]; [14],100
same,"Plant response rating, Crabgrass, Large",[6]; [15],98
same,"Plant response rating, Crabgrass, Large",[6]; [16],100
same,"Plant response rating, Crabgrass, Large",[6]; [17],100
same,"Crabgrass, Large plant response rating",[6]; [18],100
same,"Plant response rating, Nightshade",[7]; [19],95
same,"Plant response rating, Nightshade",[7]; [20],98
same,"Plant response rating, Nightshade",[7]; [21],98
same,Nightshade plant response rating,"[7]; 250 g ai/ha, 0 to 100 scale",100
same,"Plant response rating, Pigweed",[8]; [11],100
same,Pigweed plant response rating (0 to 100 scale),[8]; [12],100
same,"Plant response rating, Pigweed",[8]; [13],100
same,"Plant response rating, Pigweed",[8]; [14],100
same,"Plant response rating, Pigweed",[8]; [15],98
same,"Plant response rating, Pigweed",[8]; [16],100
same,"Plant response rating, Pigweed",[8]; [17],100
same,Pigweed plant response rating,[8]; [18],100
same,"Plant response rating, Sunflower",[9]; [19],30
same,"Plant response rating, Sunflower",[9]; [20],55
same,"Plant response rating, Sunflower",[9]; [21],75
same,Sunflower plant response rating,"[9]; 250 g ai/ha, 0 to 100 scale",85
same,"Plant response rating, Cupgrass, Woolly",[10]; [11],10
same,"Cupgrass, Woolly plant response rating (0 to 100 scale)",[10]; [12],55
same,"Plant response rating, Cupgrass, Woolly",[10]; [13],55
same,"Plant response rating, Cupgrass, Woolly",[10]; [14],80
same,"Plant response rating, Cupgrass, Woolly",[10]; [15],5
same,"Plant response rating, Cupgrass, Woolly",[10]; [17],55
same,"Cupgrass, Woolly plant response rating",[10]; [18],75
